Here are results for 16 compounds from publication PMC9415896, “Total Synthesis of the Antimycobacterial Natural Product Chlorflavonin and Analogs via a Late-Stage Ruthenium(II)-Catalyzed ortho-C(sp^2)-H-Hydroxylation” (Pharmaceuticals, 2022).

≈ marks a conversion by molar mass, not a printed value.

Data set [1] has as its system M. tuberculosis H37Rv. Briefly: Minimal inhibitory concentration (MIC) resazurin assay. Type of data set: cell-based, Mycobacterium tuberculosis.
Data set [2] is described as follows: Chemical stability in phosphate buffer (HPLC-UV). Type of data set: physicochemical. On the procedure:
Stability testing was performed in phosphate buffer pH 2.0 and 7.4 (prepared according to Ph. Eur. 10) at 20 °C over a period of 48 h. Therefore, 0.4 mg of substance was dissolved in Tween® 20 und ethanol (7/3 v/v) and diluted with the respective phosphate buffer. The solution was shaken with an IKA KS 260 basic (250 min^−1) at 25 °C for 48 h. Analysis was performed after 1, 3, 6, 24, and 48 h by comparing the area under the curve (A.U.C.), which was measured with HPLC-UV at 254 nm (n = 1).

Experiment in data set [3]: not given
The source holds these as a separate data set.

A short description of data set [4]: Single-point metabolic stability in human liver microsomes. The class given is in vitro ADME. On the procedure: The metabolic stability assay was performed in Human Liver Microsomes (HLM) using a single-point metabolic stability assay. Briefly, the compounds were incubated at 1 μM in 0.4 mg/mL human mixed-gender liver microsomes (Xenotech, Kansas City, KS, USA, pool of 50) for 30 min at 37 °C. Reactions were quenched by adding ice-cold acetonitrile containing internal standard. The samples were then centrifuged and analyzed by LC-MS/MS for the disappearance of the parent compound. Half-life, clearance, and hepatic […] ratios were determined using standard equations [47, 48]. Propranolol and midazolam were used as positive controls and treated similarly.

For data set [5], the system named is human cell lines MRC-5, HEK-293, THP-1. The class given is cell-based. As for the experimental part: For the determination of the cytotoxicity of the compounds, different human cell lines were used. The human fetal lung fibroblast cell line MRC-5 (American Type Culture Collection) was incubated in Eagle’s Minimum Essential Medium (EMEM) containing 1% (v/v) Na-pyruvate, whereas the human embryonic kidney cell line HEK-293 (CLS Cell Lines Service GmbH) was cultivated in EMEM supplemented with 2 mM L-glutamine, 1% (v/v) non-essential amino acids, and 1 mM sodium pyruvate. The human monocyte cell line THP-1 (Deutsche Sammlung von Mikroogranismen und Zellkulturen GmbH) was cultured in RPMI 1640 medium. All media were supplemented with 10% (v/v) heat-inactivated fetal bovine serum (FBS).
The cell densities were quantified using a hemocytometer and then adjusted to 10^6 cells/mL. Next, 100 µL per well were seeded in 96-well microtiter plates to yield an inoculation cell density of […] cells per well. Compounds were added employing two-fold serial dilutions resulting in final concentrations ranging from 100 to 0.78 µM. Cells were incubated for two days at 37 °C and 5% CO2 in a humidified atmosphere. […] Fluorescence was measured in a TECAN microplate reader (excitation of 540 nm, emission of 590 nm). The percentage of growth was calculated with respect to DMSO (100% growth) and Triton X-100 (0% growth) controls.

Data set [6] concerns Mtb XDR clinical isolates. The note with it: ref Rehberg et al. [14]; cited from earlier work.
The nature of data set [7]: physchem. Particulars: pH 7.4.
The subject of data set [8] is M. tuberculosis H37Rv. Also on record: method as in Rehberg et al. [14]. Particulars: ref Rehberg et al. [14], cited from earlier work.
A further data set relates to monocyte cell line THP-1. The note with it: ref Rehberg et al. [14]; cited from earlier work.
Data set [9] has as its system human fetal lung fibroblast cell line MRC-5. Particulars: ref Rehberg et al. [14]; cited from earlier work.
Data set [10] can be described thus: physchem.
A further data set deals with Mtb. Set-up: method as in PMID 9818746. The note with it: Mtb-infected mice; cited from earlier work.

Regarding `COc1cc(O)c2c(=O)c(OC)c(-c3cccc(C)c3O)oc2c1OC`, the melting point was determined as 213.3 °C.

Compound `COc1cc(O)c2c(=O)c(OC)c(-c3cccc(Br)c3OC(F)F)oc2c1OC` returned a melting point of 162.4 °C.

In the case of `COc1cc(O)c2c(=O)c(OC)c(-c3cc(F)cc(Cl)c3O)oc2c1OC`, the melting point was 245 °C.

As for `COc1cc(O)c2c(=O)c(OC)c(-c3ccc(Cl)cc3O)oc2c1OC`, the melting point came to 240.7 °C.

With `COc1cc(O)c2c(=O)c(OC)c(-c3ccc(Cl)c(O)c3)oc2c1OC`, the melting point was 48 °C.

In turn, `COc1cc(O)c2c(=O)c(OC)c(-c3cccc(Cl)c3Cl)oc2c1OC` yielded a melting point of 184.8 °C.

The compound `COc1cc(O)c2c(=O)c(OC)c(-c3cccc(Cl)c3)oc2c1OC` yielded a melting point of 188.3 °C.

As to `COc1cc(O)c2c(=O)c(OC)c(-c3cccc(Br)c3O)oc2c1OC` [BF, bromflavonin], the “Minimal Inhibitory Concentrations (MIC90)” value in the data set with M. tuberculosis H37Rv [1] was found to be 0.78 μm. In addition, the antimycobacterial activity entry in the data set with M. tuberculosis H37Rv [1] (Mtb H37Rv, in words) is “submicromolar”. The “drug content after 48 h” value in data set [2] (phosphate buffer pH 2.0, 48 h) is 99%; in data set [2] (phosphate buffer pH 7.4, 48 h), 99%. The “Water solubility at pH 7.4” value in data set [3] is under 5 μM. Besides, in data set [4], the “CLint, app (predicted in vivo intrinsic clearance)” value is listed as 53.4. In addition, the “cytotoxicity toward human cells” value in data set [5] is on record as “no cytotoxicity”.

The compound `COc1cc(O)c2c(=O)c(OC)c(-c3cccc(Cl)c3O)oc2c1OC` [CF, chlorflavonin] had a melting point of 213.7 °C. For the same compound, the “in vitro growth inhibition” value in data set [6] is on record as “strong in vitro growth inhibition”. The compound further came in with a solubility at 24 h in “physchem [7]” of under 5 µM. Further, the “effect of mono treatment” value in the data set with M. tuberculosis H37Rv [8] (mono treatment with CF) is “bacteriostatic effect”. Moreover, the MIC90 with M. tuberculosis H37Rv [8] (virulent Mtb H37Rv, in vitro growth inhibition) is 1.56 µM (≈ 0.591 µg/mL). Besides, the combination effect result in the data set on M. tuberculosis H37Rv [8] (with delamanid and isoniazid, including intracellular activity against infected human macrophages) is given as “synergistic efficacy”. Also, the cytotoxicity result with monocyte cell line THP-1 is reported as “no cytotoxicity”. Moreover, in data set [2] (phosphate buffer pH 2.0, 48 h), the “drug content after 48 h” value worked out at 99%. The “drug content after 48 h” value in data set [2] (phosphate buffer pH 7.4, 48 h) turned out to be 99%. For the same compound, the cytotoxicity entry in [9] was “no cytotoxicity”. Also, in the data set “physchem [10]” (pKa1 (2′-OH)), the pKa came to 6.8 ± 0.07. The compound also had a pKa in “physchem [10]” (pKa2 (5-OH)) of 10.4. In [4] (1 μM, human liver microsomes 0.4 mg/mL, 30 min, 37 °C), the “remaining after 30 min” value came to 48%.

`COc1cc(O)c2c(=O)c(OC)c(-c3cccc(Br)c3O)oc2c1OC` [Compound 1a] gave a melting point of 210.2 °C.

With `COc1cc(O)c2c(=O)c(OC)c(-c3cccc(F)c3O)oc2c1OC` [Compound 1b], the melting point amounted to 208.6 °C.

As to `COc1cc(O)c2c(=O)c(OC)c(-c3cccc(I)c3O)oc2c1OC` [Compound 1c], the melting point was found to be 223.4 °C.

`COc1cc(O)c2c(=O)c(OC)c(-c3cccc(C(F)(F)F)c3O)oc2c1OC` [Compound 1d] displayed a melting point of 195.4 °C.

The compound `COc1cc(O)c2c(=O)c(OC)c(-c3cccc(Br)c3F)oc2c1OC` [Compound 1f] showed a melting point of 217.4 °C.

`COc1cc(O)c2c(=O)c(OC)c(-c3cc(F)cc(Br)c3O)oc2c1OC` [Compound 1i] gave a melting point of 251.4 °C.

Turning to `COC(=O)c1ccccc1S(=O)(=O)NC(=O)Nc1nc(C)cc(C)n1` [sulfometuron methyl], in the data set with Mtb, the “proliferation of the pathogen in the host's lungs” value is reported as “significantly reduced proliferation”.
